We go through eleven compounds from patent US20230159509A1 (Amathus Therapeutics, Inc., priority 2020, published 2023).

Structures are written as SMILES. A value given as a limit tells only on which side of the number the result lay.

Test [1] concerns the target T1, TRAP1 enzyme (Homo sapiens, UniProt Q12931).
T1 construct: 150 nM Trap1 enzyme was incubated with various concentrations of the test compound
T1 sequence (Q12931 60-704): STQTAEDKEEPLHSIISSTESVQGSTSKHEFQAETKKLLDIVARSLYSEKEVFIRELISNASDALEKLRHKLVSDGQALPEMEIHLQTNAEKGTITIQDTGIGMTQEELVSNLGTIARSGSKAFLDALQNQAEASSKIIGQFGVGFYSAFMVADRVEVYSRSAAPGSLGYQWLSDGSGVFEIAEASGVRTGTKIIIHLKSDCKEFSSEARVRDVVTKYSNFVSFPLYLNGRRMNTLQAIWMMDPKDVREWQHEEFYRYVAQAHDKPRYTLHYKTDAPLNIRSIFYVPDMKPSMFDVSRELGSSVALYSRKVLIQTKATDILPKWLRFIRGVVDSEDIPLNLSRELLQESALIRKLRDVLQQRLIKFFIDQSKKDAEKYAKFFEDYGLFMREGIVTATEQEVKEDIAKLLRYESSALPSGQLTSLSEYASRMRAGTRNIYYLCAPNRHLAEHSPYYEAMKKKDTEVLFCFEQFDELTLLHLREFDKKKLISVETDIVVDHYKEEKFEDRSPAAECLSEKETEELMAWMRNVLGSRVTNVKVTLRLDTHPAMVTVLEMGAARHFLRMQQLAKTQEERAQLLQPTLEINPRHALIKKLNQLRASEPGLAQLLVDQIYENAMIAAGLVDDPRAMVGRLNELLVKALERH
Description: Malachite green phosphate assay of TRAP1 ATPase activity. The test is classed as biochemical. Particulars: for EC50: concentration for half maximal activation, read-out: Malachite Green Fluor DRC: GeoMean EC50; for Emax: maximal percent activation, read-out: Malachite Green Fluor DRC: Mean Emax. On the procedure:
The Potency of test compounds to modulate the ATPase activity of TRAP1 enzyme was evaluated using malachite green phosphatase assay. The assay is based on quantification of the green complex formed between Malachite Green, molybdate and inorganic phosphate generated in the phosphatase reaction. Assays were performed using a Malachite Green assay kit. All the assays were carried out in a 96-well transparent plate. The buffer used was 50 mM HEPES (pH 7.5), 20 mM KCl, 4 mM MgCl2 and 0.05% BSA. 150 nM Trap1 enzyme was incubated with various concentrations of the test compound (0.78 μM-100 μM) at 37° C. for 30 mins. 20 μM ATP was added to each well (except blank wells) to start the reaction and the plate was then incubated at 37° C. for 180 mins. 10 μl of the reaction volume of each sample was then transferred to a white 384-well proxiplate in quadruplets. 2.5 μl of Malachite Green reagent was added to all the wells and the plate was equilibrated for 15 mins. The reaction was stopped by adding 12% H2SO4 and the plate was read for fluorescence at 620 nm (λex=573 nm). The amount of phosphate released was estimated from a phosphate standard curve generated at the same experimental conditions. Emax (Maximal percent activation) and EC50 (concentration of test compound for half maximal activation) were estimated by fitting the dose response data to a sigmoidal curve fitting equation using Graphpad Prism software V.7.0.

For test [2], the target named is T1, TRAP1 enzyme. Description: ADP Glo assay of TRAP1 ATPase activity. To be noted: for EC50: concentration for half maximal activation, read-out: ADP GLO DRC: GeoMean EC50; for Emax: maximal percent activation, read-out: ADP GLO DRC: Mean Emax; for activation at 50 µM: 1 h, compound concentration 50 μM, read-out: ADP-Glo Percent Activation at 50 μM. The test is classed as biochemical. The method in brief: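 Compound (0.79–100 μM) was preincubated 30 min at 37° C with 150 nM TRAP1 in 25 mM Pipes pH 7.5, 40 mM KCl, 0.05 mM MgCl2. Reaction started with 20 μM ATP, 60 min at 37° C. ADP measured by luminescence against a standard curve; activation fitted sigmoidally for EC50 and Emax.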
(ADP-Glo first removes unused ATP, then detects ADP through luciferase.)

Test [3] has as its system tamoxifen-induced polycystic kidney disease model (Ksp-TamCre×PkdlLox). Description: Tamoxifen-induced polycystic kidney disease mouse model. The test is classed as in vivo. Particulars: compound 1206 10 mg/kg po QD 14d; for 2 KW/BW ratio (kidney weight/body weight): compared to tamoxifen-induced vehicle control group. As to the method: Compound 1206 (10 mg/kg po, QD dosing for 14d, n=13/group) was assessed in a tamoxifen-induced polycystic kidney disease model (Ksp-TamCre×PkdlLox; Human Molecular Genetics, 2007, Vol. 16, No. 24, 3188-3196). A negative control group induced with tamoxifen (Vehicle) and a negative control group not induced with tamoxifen (No Tam) were included. A positive control group was dosed with everolimus. Mice were dosed orally on both PND 10, 11 with 25 mg/kg tamoxifen. Oral dosage of vehicle, compound 1206, and everolimus started from PND 14 onwards to PND 27. The readouts of this study were body weight, kidney weight, BUN levels and histopathology assessment including cyst index.
The fixated kidney half was processed for paraffin embedding and further pathological assessment after hematoxylin-eosin staining. One piece of each H-E stained kidney half was observed by a board certified pathologist, who read a cross section of the kidney. For each kidney one section was evaluated. From this section an overview photo was taken (2X) and used to calculate the cystic index. The cystic areas were identified by a color thresholding method using an image analysis system (Image software, public domain software, NIH, Bethesda, Md.). The threshold area was calculated within a defined ROI (region of interest) representing the total area analyzed. This area represents at least 70-80% of the entire kidney section. The cystic index (CI) is defined as the percentage of the area of cysts lumen (in pixels) over the total kidney area in the selected ROI (in pixels).

The test system of the next test is mIMCD3 Pkd1 KO cells. Kind of test: Mouse cell derived cyst assay. The test is classed as cell-based. Particulars: Pkd 1 KO mouse cell derived cyst forming assay; FIG. 16. On the procedure:
Mouse cell derived cyst assays were performed as described in Booij, Tijmen H et al., SLAS discovery: advancing life sciences R & D vol. 22.8 (2017): 974-984, or as described below.
Murine inner medullary collecting duct cell line (mIMCD3 Pkd1^−/− cells) • mIMCD3 Pkd1 KO cells were seeded in 384 wells plates in extracellular matrix. • 4 days after seeding, cultures were co-exposed to treatments and stimuli (2.5 μM forskolin); • After 72 h, cultures were fixed, stained for nuclei and actin cytoskeleton and imaged with 4× magnification; and • Image analysis of the 3D stack was done using Ominer™ image analysis software.

[4] abbreviates: compared with tamoxifen-induced vehicle control group.

Consider `COc1ncc(NC(=O)c2ncc(-c3ccccc3)o2)cc1S(=O)(=O)Nc1ccc(Cl)cc1` [compound 535, N-(5-(N-(4-chlorophenyl)sulfamoyl)-6-methoxypyridin-3-yl)-5-phenyloxazole-2-carboxamide], for which, at TRAP1 enzyme [1], the EC50 (usually the concentration that produces a half-maximal response) was 10 to 20 µM and the Emax (commonly the greatest response seen or fitted, relative to the assay's reference) was in the range of 160 to 199%.

With `Cc1cccc(C)c1NS(=O)(=O)c1cncc(NC(=O)c2cnc(-c3ccccc3)[nH]2)c1` [compound 592, N-(5-(N-(2,6-dimethylphenyl)sulfamoyl)pyridin-3-yl)-2-phenyl-1H-imidazole-5-carboxamide], at TRAP1 enzyme [1], the EC50 is 20 to 100 µM and the Emax fell in the range of 160 to 199%.

Consider `COc1ncc(NC(=O)c2ncc(-c3ccccc3)o2)cc1S(=O)(=O)Nc1ccc(C(F)(F)F)cc1` [compound 594, N-(6-methoxy-5-(N-(4-(trifluoromethyl)phenyl)sulfamoyl)pyridin-3-yl)-5-phenyloxazole-2-carboxamide], for which, at TRAP1 enzyme [1], the 50% effective concentration (EC50) fell in the range of 20 to 100 µM and the Emax was 119 to 159%.

`COc1ncc(NC(=O)c2cnc(-c3ccccc3)o2)cc1S(=O)(=O)Nc1ccc(C(F)(F)F)cc1` [compound 604, N-(6-methoxy-5-(N-(4-(trifluoromethyl)phenyl)sulfamoyl)pyridin-3-yl)-2-phenyloxazole-5-carboxamide]: on TRAP1 enzyme [1], the EC50 lay within 20 to 100 µM and the Emax lay in the range of 160 to 199%.

In the case of `O=C(Nc1cccc(S(=O)(=O)Nc2ccc(Cl)cc2)n1)c1cnc(-c2ccccc2)[nH]1` [compound 612, N-(6-(N-(4-chlorophenyl)sulfamoyl)pyridin-2-yl)-2-phenyl-1H-imidazole-5-carboxamide], on TRAP1 enzyme [1], the EC50 fell in the range of 20 to 100 µM and the Emax lay in the range of 200 to 300%.

Regarding `COc1ncc(NC(=O)c2ncc(-c3ccccc3)o2)cc1S(=O)(=O)Nc1c(Cl)cccc1Cl` [compound 670, N-(5-(N-(2,6-dichlorophenyl)sulfamoyl)-6-methoxypyridin-3-yl)-5-phenyloxazole-2-carboxamide], on TRAP1 enzyme [2], the EC50 was 20 to 100 µM and the Emax lay within 160 to 199%. Also, at TRAP1 enzyme [1], the EC50 lay in the range of 20 to 100 µM and the Emax lay in the range of 200 to 300%.

On to `COc1ncc(NC(=O)c2ccc3c(c2)n(C)c(=O)n3C)cc1S(=O)(=O)Nc1ccc(Cl)cc1` [compound 1206, N-(5-(N-(4-chlorophenyl)sulfamoyl)-6-methoxypyridin-3-yl)-1,3-dimethyl-2-oxo-2,3-dihydro-1H-benzo[d]imidazole-5-carboxamide], for which the “2 KW/BW ratio (kidney weight/body weight)” value in test [3] was “significantly lower”. Besides, in test [3] (setting [4]), the cystic index entry is “significantly lower” and the “urea levels (BUN)” value was “significantly lower”. Besides, the cyst formation entry in the test on mIMCD3 Pkd1 KO cells is listed as “preventing cyst formation”. Moreover, on TRAP1 enzyme [2], the EC50 was less than 10 µM and the Emax lay in the range of 119 to 159%.

Regarding `CCN1CCN(c2ccc(C(=O)Nc3cnc(OC)c(S(=O)(=O)Nc4c(C)cccc4C)c3)cc2)CC1` [compound 2791], the activation at 50 µM at TRAP1 enzyme [2] fell in the range of 181 to 352%.

Regarding `COc1ncc(NC(=O)c2cc3c(s2)CCC3)cc1S(=O)(=O)Nc1c(C)cccc1C` [compound 2792], the activation at 50 µM on TRAP1 enzyme [2] is 120 to 150%.

In the case of `COc1ncc(NC(=O)c2cnc3c(c2)OCCN3C)cc1S(=O)(=O)Nc1c(C)cccc1C` [compound 2793], on TRAP1 enzyme [2], the activation at 50 µM lay in the range of 181 to 352%.

For `CO[C@H]1C[C@@H]2CC[C@@H](C)[C@@](O)(O2)C(=O)C(=O)N2CCCC[C@H]2C(=O)O[C@H]([C@H](C)C[C@@H]2CC[C@@H](OCCO)[C@H](OC)C2)CC(=O)[C@H](C)/C=C(\C)[C@@H](O)[C@@H](OC)C(=O)[C@H](C)C[C@H](C)/C=C/C=C/C=C/1C` [everolimus, reference compound], the “2 KW/BW ratio (kidney weight/body weight)” value in test [3] is recorded as “significantly lower”. For the same compound, the cystic index result in test [3] (setting [4]) is “significantly lower”.
